# Reference: patent publication US20220133618A1, “Low Surfactant Personal Care Compositions” (The Procter & Gamble Company, priority 2020, published 2022)
# Tests used:
# [1] = test system: keratinocytes on de-epidermized dermis (DED); assay: TEWL (transepidermal water loss) on organotypic epidermis cultures; type: cell-based, human; conditions: topical treatment 20 minutes, washed, reading after 24 hours; higher value = worse
# Description: TEWL (transepidermal water loss) is a common clinical measure used to compare the mildness of surfactant-based formulations for skin (Rogiers 2001; Berardesca and Maibach 1990; Brink et al. 2019; O'Connor, Ogle, and Odio 2016; Thune et al. 1988). TEWL is considered to provide a relative understanding of individual skin barrier quality in relation to onset of disease, environmental impacts and exposure to topical formulations, such as consumer products (Alexander et al. 2018). […]
# De-epithelialized dermis (DED) was prepared by removing fat from the skin sample with a scalpel, cutting the skin into squares measuring 1.25 cm^2, and placing the samples in 1M NaCl plus 10× penicillin/streptomycin. […] The following day, the epidermis was carefully peeled off with forceps and dermal tissue was stored in phosphate-buffered saline (PBS) plus 2× penicillin/streptomycin at 4° C. until ready for use. […]
# At day 7 at the air-liquid interface, the cultures were treated topically with full or diluted formulas by cotton swab or by pipetting 6-50 ul, depending on product viscosity. […] Once equilibrated the cultures were placed on the lid of a sterile 150 mm petri dish and TEWL readings were taken using a Delfin Vapometer containing a silicone O-ring adaptor provided by the manufacturer. […]
# [2] = Syringe filter polymer cleaning procedure (syringe method); conditions: Table 4; controls; Decyl Glucoside 2% starting active before dilution
# Procedure: Procedure for Syringe Filter Polymer Cleaning
# 1) materials used in syringe cleaning procedure: • A. 0.15% Oil Red 0 dyed >95% pure Glyceryl Trioleate oil (See below—Procedure for preparing 0.15% Oil Red 0 dyed Triolein oil (Glyceryl trioleate)) • B. Syringe Filters: 30 mm, 5 um Nylon syringe filters; (Thermo Fischer Scientific Co, Waltham, Mass.: Part #F2500-50) • C. 24 ml Norm-ject luer (slip tip) syringes Ref #4200-00V0 (These are silicone free syringes) • D. Isopropanol (IPA) • E. Polymer Solutions/mixtures—diluted with distilled water to the desired percentage (typically 0.5% for a polymer only solution and 10% for a full formulation unless otherwise noted in the examples). • F. Plastic drain tubing having a diameter to fit over the slip tip of the syringe filter tightly
# Syringe Pump Settings • Syringe Diameter: 20 mm (Note: The volume of liquid dispensed by the syringe is based on the diameter of the syringe and diameter setting must be changed if using different sizes of syringes). • Dispensing Volume set point: 5 mls • Cleaning Dispensing Rate: 5 mls/min • IPA Extraction Rate: 2.5 ml/min
# • 1. Coat the slip tip side of the syringe filter (see FIG. 5) using a micro pipettor with 48-50 mg of Oil 0 Red dyed Triolein oil by setting the micro-pipettor to a volume of ˜58 ul to compensate for the lower density of the dyed oil. • 2. Slowly fill the pipette tip with oil. […]
Compound,TEWL Mean [1],% Sebum Removed with Syringe Method [2] [%]
CCCCCCCCCCCCOS(=O)(=O)[O-].[Na+] [SLS (10%)],26.03,
"CCCCCCCCCCO[C@@H]1O[C@H](CO)[C@@H](O)[C@H](O)[C@H]1O [Sample C3, Decyl Glucoside]",,51
